PMC12005470, “Effects of Cholesterol on the Breast Cancer Resistance Protein: Studies through the Synthesis and Biological Evaluation of Chemical Tools” (Chemmedchem, 2025)

Key:
[1] = molecular target: T1, breast cancer resistance protein (BCRP/ABCG2) (Homo sapiens, UniProt Q9UNQ0); assay: Ko143-sensitive accumulation in HEK293-ABCG2 cells, confocal microscopy; efflux by flow cytometry; type: cell-based
T1 sequence (Q9UNQ0 1-655): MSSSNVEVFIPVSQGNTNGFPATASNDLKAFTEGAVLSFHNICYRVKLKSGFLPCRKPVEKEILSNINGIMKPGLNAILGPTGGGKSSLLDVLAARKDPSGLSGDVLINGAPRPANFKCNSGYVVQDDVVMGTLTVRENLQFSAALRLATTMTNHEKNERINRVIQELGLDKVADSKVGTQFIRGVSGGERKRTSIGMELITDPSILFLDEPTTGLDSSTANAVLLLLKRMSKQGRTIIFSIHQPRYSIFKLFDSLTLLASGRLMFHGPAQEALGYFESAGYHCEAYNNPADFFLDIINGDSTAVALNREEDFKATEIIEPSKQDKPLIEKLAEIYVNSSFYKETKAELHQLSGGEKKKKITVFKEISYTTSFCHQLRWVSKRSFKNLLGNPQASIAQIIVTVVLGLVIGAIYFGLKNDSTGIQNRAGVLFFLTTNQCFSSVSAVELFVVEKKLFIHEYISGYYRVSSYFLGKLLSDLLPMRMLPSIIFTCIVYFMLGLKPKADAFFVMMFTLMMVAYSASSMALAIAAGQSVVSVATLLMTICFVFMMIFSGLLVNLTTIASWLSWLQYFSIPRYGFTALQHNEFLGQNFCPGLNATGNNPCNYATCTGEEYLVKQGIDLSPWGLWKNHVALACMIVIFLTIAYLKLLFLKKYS

[2] = molecular target: T1, breast cancer resistance protein (BCRP/ABCG2); assay: cell-based

With `C=Cc1c(C)c2cc3nc(c4c5[nH]c(cc6nc(cc1[nH]2)C(C)=C6CC)c(C)c5C(=O)[C@@H]4C(=O)OC)[C@@H](CCC(=O)O)[C@@H]3C` [compound 2, pheophorbide a] the “Ko143-sensitive accumulation in HEK293-ABCG2 cells, confocal microscopy; efflux” value [1] was “ABCG2 inhibition by Ko143 caused an intracellular accumulation of hoechst and pheophorbide a (Figure S1)”.

`O=C(/C=C/c1ccccc1)c1ccccc1` [compound 5, Chalcone (5)] gave an IC50 [2] of 2210 ± 500 nM.
